Test results as given in ChEMBL document CHEMBL1909046, “DrugMatrix in vitro pharmacology data”.

Key:
[1] = target: T1, Alpha-1A adrenergic receptor (Rattus norvegicus, UniProt P43140); experiment: DRUGMATRIX: Alpha-1A adrenergic receptor radioligand binding (ligand: prazosin); format: cell membranes, Wistar, Submaxillary gland, Membrane; settings: Not Active = under 50% inhibition at 10 µM
T1 sequence (P43140 whole entry): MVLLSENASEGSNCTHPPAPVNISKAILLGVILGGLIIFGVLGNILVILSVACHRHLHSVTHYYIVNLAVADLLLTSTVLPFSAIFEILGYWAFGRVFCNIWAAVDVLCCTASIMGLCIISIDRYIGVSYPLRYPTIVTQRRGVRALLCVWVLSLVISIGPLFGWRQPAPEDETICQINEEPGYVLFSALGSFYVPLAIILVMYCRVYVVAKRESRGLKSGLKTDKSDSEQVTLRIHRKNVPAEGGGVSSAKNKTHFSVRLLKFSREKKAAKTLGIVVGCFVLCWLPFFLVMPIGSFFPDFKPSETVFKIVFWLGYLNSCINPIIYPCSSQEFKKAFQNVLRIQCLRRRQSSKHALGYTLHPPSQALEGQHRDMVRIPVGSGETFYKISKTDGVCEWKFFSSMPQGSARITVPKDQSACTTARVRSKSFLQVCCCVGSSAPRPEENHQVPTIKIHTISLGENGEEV

[2] = target: T2, Type-2 angiotensin II receptor (Homo sapiens, UniProt P50052); format: cell-based; settings: cho-k1; further: in other assays of this panel Not Active means under 50% inhibition at 10 µM
T2 sequence (P50052 whole entry): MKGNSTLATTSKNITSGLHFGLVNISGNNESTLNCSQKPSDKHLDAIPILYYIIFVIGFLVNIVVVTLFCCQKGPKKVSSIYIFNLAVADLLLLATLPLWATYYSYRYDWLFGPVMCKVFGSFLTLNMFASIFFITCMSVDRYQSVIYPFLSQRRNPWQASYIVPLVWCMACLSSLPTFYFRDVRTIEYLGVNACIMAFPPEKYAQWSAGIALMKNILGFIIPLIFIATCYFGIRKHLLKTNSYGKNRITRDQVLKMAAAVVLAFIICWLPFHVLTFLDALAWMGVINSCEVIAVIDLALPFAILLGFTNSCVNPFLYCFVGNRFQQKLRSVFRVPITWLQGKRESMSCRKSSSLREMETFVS

[3] = target: Vascular endothelial growth factor receptor 1 (Homo sapiens, UniProt P17948); format: cell-based; settings: huvec; further: in other assays of this panel Not Active means under 50% inhibition at 10 µM
[4] = target: T3, Vasoactive intestinal polypeptide receptor 1 (Homo sapiens, UniProt P32241); format: cell membranes, Membrane; settings: ht-29; further: in other assays of this panel Not Active means under 50% inhibition at 10 µM
T3 sequence (P32241 whole entry): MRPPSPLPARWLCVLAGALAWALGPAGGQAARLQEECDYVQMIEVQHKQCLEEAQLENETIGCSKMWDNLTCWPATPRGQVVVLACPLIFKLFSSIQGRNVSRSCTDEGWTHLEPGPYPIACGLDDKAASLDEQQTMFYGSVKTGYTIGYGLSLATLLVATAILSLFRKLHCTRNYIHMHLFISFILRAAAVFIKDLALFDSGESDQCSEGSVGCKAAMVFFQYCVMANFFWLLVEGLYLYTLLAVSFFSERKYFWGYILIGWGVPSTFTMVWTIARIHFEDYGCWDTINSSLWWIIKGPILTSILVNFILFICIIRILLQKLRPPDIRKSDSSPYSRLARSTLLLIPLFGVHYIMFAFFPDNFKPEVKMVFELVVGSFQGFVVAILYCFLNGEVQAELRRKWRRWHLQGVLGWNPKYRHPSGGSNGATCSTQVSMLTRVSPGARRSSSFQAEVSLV

Carbonic anhydrase 2 = Carbonic anhydrase 2 (Homo sapiens, UniProt P00918); experiment: DRUGMATRIX: Carbonic Anhydrase II enzyme inhibition (substrate: 4-Nitrophenyl acetate (4-NPA)); format: tissue-based, Erythrocyte; settings: Not Active = under 50% inhibition at 10 µM
[5] = target: T4, Neuropeptide Y receptor type 2 (Homo sapiens, UniProt P49146); format: cell membranes, Membrane; settings: kan-ts; further: in other assays of this panel Not Active means under 50% inhibition at 10 µM
T4 sequence (P49146 whole entry): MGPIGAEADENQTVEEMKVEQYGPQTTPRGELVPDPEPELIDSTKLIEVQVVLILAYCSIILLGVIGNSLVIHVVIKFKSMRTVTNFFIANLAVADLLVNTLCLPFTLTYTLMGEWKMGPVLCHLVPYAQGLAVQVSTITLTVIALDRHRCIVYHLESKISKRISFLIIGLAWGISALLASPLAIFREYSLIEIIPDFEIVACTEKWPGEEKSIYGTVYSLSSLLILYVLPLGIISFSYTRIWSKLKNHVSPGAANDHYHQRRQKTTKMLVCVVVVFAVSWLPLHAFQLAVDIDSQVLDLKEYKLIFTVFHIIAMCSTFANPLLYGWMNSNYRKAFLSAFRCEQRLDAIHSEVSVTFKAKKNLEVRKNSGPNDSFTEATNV

[6] = target: Delta-type opioid receptor (Homo sapiens, UniProt P41143); format: cell membranes, HEK293, Membrane; further: in other assays of this panel Not Active means under 50% inhibition at 10 µM
Cytochrome P450 1A2 = target: T5, Cytochrome P450 1A2 (Homo sapiens, UniProt P05177); settings: bti-tn-5b1-4; further: in other assays of this panel Not Active means under 50% inhibition at 10 µM
T5 sequence (P05177 whole entry): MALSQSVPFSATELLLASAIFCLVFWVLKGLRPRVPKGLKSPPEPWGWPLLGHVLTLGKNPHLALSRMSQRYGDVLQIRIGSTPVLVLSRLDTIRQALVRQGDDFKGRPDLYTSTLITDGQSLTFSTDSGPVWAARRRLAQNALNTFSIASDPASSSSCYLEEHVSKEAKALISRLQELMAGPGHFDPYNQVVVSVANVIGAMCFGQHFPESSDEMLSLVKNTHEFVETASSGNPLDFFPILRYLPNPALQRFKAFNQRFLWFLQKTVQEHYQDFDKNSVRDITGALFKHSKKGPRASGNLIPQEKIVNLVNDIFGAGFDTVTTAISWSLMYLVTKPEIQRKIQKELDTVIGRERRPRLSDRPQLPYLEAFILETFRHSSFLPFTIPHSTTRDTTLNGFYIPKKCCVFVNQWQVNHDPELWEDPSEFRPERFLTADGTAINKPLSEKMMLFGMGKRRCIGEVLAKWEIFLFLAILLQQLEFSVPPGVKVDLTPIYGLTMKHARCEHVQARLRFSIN

Delta-type opioid receptor, sequence (P41143 whole entry): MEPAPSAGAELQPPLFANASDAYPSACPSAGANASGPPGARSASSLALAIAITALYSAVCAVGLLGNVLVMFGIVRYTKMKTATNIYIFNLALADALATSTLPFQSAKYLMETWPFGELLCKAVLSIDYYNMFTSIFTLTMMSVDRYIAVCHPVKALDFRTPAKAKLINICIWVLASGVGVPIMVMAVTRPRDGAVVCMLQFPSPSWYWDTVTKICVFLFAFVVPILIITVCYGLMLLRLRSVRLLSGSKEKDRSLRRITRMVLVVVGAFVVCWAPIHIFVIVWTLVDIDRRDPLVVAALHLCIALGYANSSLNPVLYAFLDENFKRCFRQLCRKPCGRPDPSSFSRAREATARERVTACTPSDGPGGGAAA
Vascular endothelial growth factor receptor 1, sequence (P17948 whole entry): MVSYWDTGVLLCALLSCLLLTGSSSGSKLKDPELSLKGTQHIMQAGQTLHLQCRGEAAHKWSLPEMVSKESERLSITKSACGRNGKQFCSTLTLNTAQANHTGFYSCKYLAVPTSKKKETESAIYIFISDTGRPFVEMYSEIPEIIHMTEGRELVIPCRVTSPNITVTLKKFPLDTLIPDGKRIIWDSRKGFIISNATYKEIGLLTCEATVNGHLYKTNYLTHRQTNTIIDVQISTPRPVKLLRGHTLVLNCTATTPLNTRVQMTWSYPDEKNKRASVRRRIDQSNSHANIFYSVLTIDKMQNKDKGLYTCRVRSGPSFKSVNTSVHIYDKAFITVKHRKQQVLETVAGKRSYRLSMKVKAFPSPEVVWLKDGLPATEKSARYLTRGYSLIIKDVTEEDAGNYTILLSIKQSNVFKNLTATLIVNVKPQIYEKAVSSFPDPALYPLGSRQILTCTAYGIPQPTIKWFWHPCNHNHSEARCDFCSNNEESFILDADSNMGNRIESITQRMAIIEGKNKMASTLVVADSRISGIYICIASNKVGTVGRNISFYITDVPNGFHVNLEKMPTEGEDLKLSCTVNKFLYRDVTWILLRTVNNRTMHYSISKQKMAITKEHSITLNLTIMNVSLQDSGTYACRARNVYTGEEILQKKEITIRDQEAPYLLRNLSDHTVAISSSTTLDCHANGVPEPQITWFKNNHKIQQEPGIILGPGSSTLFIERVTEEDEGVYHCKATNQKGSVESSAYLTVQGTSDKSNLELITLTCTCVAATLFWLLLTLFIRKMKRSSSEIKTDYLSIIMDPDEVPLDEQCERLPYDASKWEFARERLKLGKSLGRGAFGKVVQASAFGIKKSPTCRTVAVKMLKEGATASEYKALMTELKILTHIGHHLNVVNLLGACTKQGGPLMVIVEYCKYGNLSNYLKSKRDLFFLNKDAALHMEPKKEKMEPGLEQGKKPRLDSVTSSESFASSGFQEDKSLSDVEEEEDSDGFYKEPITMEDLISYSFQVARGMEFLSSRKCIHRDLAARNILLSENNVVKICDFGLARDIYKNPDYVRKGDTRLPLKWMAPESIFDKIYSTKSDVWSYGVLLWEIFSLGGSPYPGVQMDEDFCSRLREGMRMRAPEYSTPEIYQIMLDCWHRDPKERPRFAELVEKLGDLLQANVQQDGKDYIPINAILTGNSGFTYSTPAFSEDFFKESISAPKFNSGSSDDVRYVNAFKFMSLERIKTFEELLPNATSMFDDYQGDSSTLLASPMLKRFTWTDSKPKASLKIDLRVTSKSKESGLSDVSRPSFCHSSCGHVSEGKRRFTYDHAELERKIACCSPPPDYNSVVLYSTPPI

| Compound | IC50 [1] | IC50 [2] | IC50 [3] | IC50 [4] | IC50 (Carbonic anhydrase 2; erythrocyte) | IC50 [5] | IC50 ([6]; hek293) | IC50 (Cytochrome P450 1A2) | Ki (Cytochrome P450 1A2) | IC50 (Carbonic anhydrase 2; read-out: IC50) | IC50 ([6]; read-out: IC50) | Ki ([6]; read-out: Ki) |
| --- | --- | --- | --- | --- | --- | --- | --- | --- | --- | --- | --- | --- |
| C[N+](C)(C)CCOC(N)=O.[Cl-] [CARBACHOL] | Not Active | Not Active | Not Active | Not Active | Not Active | Not Active | Not Active | Not Active | Not Active |  |  |  |
| O=C1c2ccccc2C(=O)C1c1ccccc1 [PHENINDIONE] | Not Active | Not Active | Not Active | Not Active | Not Active | Not Active | Not Active | Not Active | Not Active |  |  |  |
| OC[C@H]1O[C@@H]2O[C@H]3[C@H](O)[C@@H](O)[C@@H](O[C@H]4[C@H](O)[C@@H](O)[C@@H](O[C@H]5[C@H](O)[C@@H](O)[C@@H](O[C@H]6[C@H](O)[C@@H](O)[C@@H](O[C@H]7[C@H](O)[C@@H](O)[C@@H](O[C@H]8[C@H](O)[C@@H](O)[C@@H](O[C@H]1[C@H](O)[C@H]2O)O[C@@H]8CO)O[C@@H]7CO)O[C@@H]6CO)O[C@@H]5CO)O[C@@H]4CO)O[C@@H]3CO [BETADEX] | Not Active | Not Active | Not Active | Not Active | Not Active | Not Active | Not Active | Not Active | Not Active |  |  |  |
| COc1ccc(Cl)cc1C(=O)NCCc1ccc(S(=O)(=O)NC(=O)NC2CCCCC2)cc1 [GLYBURIDE] | Not Active | Not Active | Not Active | Not Active | Not Active | Not Active | Not Active | Not Active | Not Active |  |  |  |
| CCN1CCN(C(=O)N[C@@H](C(=O)N[C@@H]2C(=O)N3[C@@H]2SC(C)(C)[C@@H]3C(=O)O)c2ccccc2)C(=O)C1=O [PIPERACILLIN] | Not Active | Not Active | Not Active | Not Active | Not Active | Not Active | Not Active | Not Active | Not Active |  |  |  |
| CCC1(c2ccccc2)C(=O)NC(=O)NC1=O [PHENOBARBITAL] | Not Active | Not Active | Not Active | Not Active | Not Active | Not Active | Not Active | Not Active | Not Active |  |  |  |
| CC1(COc2ccc(CC3SC(=O)NC3=O)cc2)CCCCC1 (configuration not stated) [CIGLITAZONE] | Not Active | Not Active | Not Active | Not Active |  | Not Active |  | Not Active | Not Active | 0.086 µM | 26.9 µM | 9.48 µM |
| OC[C@H]1O[C@@H]2O[C@H]3[C@H](O)[C@@H](O)[C@@H](O[C@H]4[C@H](O)[C@@H](O)[C@@H](O[C@H]5[C@H](O)[C@@H](O)[C@@H](O[C@H]6[C@H](O)[C@@H](O)[C@@H](O[C@H]7[C@H](O)[C@@H](O)[C@@H](O[C@H]1[C@H](O)[C@H]2O)O[C@@H]7CO)O[C@@H]6CO)O[C@@H]5CO)O[C@@H]4CO)O[C@@H]3CO [ALFADEX] | Not Active | Not Active | Not Active | Not Active | Not Active | Not Active | Not Active | Not Active | Not Active |  |  |  |
| Nc1nc(F)nc2c1ncn2[C@@H]1O[C@H](CO)[C@@H](O)[C@@H]1O [FLUDARABINE] | Not Active | Not Active | Not Active | Not Active | Not Active | Not Active | Not Active | Not Active | Not Active |  |  |  |
